pIC50: −log10 of the molar value.
Experiments:
Assay type in all cases: biochemical
Abl = molecular target: T1, Abl (Homo sapiens, UniProt P00519); assay: AlphaScreen kinase assay, Abl; conditions: read-out: activity toward kinase Abl, IC50
T1 construct: P1121. pET-SPEC BI-PTP Abl G227-V515-X; His6 (N); made in house; host or cells: E. coli (PTP1B co-expressed)
T1 sequence (P00519 with tags, fused parts or gaps): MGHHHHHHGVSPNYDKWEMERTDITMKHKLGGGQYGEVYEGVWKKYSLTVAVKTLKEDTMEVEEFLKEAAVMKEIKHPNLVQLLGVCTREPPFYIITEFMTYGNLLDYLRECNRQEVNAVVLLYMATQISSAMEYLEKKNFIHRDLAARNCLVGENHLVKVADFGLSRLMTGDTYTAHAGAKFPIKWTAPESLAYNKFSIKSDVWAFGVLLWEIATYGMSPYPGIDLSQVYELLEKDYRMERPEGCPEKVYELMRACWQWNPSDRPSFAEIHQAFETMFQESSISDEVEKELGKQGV
How it was run: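 Bead-proximity format: phosphopeptide links anti-phospho antibody acceptor beads to streptavidin donor beads via biotin tag. Compounds were serially diluted 1:3 (8 points) from 20 mM stocks in DMSO.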

Src = molecular target: T2, Src (Homo sapiens, UniProt P12931); assay: AlphaScreen kinase assay, Src; conditions: read-out: IC50, activity toward kinase Src
T2 construct: P1144. pET-N6 BI-PTP SRC V86-L536-X; made in house

Jnk3 = molecular target: T3, Jnk3 (Homo sapiens, UniProt P53779); assay: AlphaScreen kinase assay, Jnk3; conditions: read-out: IC50, activity toward kinase Jnk3
T3 construct: purchased Upstate Biotechnology

Fak = molecular target: T4, Fak (Homo sapiens, UniProt Q05397); assay: AlphaScreen kinase assay, Fak; conditions: read-out: IC50, activity toward kinase Fak
T4 construct: P1358.pFastBacHtb FAK S411-Q686-X; His6 with pFastBacHTb leader (TEV site) (N); made in house; host or cells: Sf9 (baculovirus)

Jnk1 = molecular target: T5, Jnk1 (Homo sapiens, UniProt P45983); assay: AlphaScreen kinase assay, Jnk1; conditions: read-out: IC50, activity toward kinase Jnk1
T5 construct: purchased Upstate Biotechnology

Stk6 = molecular target: T6, Stk6 (Homo sapiens, UniProt O14965); assay: Z'-Lyte FRET kinase assay (Invitrogen), Stk6; conditions: read-out: IC50, activity toward kinase Stk6
T6 construct: purchased Invitrogen (Carlsbad, Calif.), screening service
T6 sequence (O14965 1-403): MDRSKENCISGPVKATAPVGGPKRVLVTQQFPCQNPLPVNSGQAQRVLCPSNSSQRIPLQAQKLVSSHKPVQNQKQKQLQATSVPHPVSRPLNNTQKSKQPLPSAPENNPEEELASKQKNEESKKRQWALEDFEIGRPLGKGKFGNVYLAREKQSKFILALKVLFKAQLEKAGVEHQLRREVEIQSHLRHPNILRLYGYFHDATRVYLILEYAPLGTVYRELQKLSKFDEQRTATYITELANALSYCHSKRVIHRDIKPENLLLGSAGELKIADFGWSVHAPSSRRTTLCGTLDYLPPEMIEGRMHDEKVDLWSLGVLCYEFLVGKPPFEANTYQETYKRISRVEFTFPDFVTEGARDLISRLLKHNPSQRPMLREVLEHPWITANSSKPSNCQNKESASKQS

T5 sequence (P45983 whole entry): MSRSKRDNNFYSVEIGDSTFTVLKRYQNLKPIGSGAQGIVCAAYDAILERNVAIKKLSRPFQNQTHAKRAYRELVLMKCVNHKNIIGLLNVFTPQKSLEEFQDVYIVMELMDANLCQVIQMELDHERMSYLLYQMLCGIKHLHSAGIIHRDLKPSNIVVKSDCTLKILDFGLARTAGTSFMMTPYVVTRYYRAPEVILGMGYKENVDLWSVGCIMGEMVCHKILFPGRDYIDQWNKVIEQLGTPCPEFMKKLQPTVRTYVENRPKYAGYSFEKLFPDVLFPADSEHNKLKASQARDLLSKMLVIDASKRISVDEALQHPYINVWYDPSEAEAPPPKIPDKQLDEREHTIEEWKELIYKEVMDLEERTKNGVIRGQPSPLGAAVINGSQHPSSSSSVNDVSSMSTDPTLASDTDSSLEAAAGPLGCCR
T2 sequence (P12931 with tags, fused parts or gaps): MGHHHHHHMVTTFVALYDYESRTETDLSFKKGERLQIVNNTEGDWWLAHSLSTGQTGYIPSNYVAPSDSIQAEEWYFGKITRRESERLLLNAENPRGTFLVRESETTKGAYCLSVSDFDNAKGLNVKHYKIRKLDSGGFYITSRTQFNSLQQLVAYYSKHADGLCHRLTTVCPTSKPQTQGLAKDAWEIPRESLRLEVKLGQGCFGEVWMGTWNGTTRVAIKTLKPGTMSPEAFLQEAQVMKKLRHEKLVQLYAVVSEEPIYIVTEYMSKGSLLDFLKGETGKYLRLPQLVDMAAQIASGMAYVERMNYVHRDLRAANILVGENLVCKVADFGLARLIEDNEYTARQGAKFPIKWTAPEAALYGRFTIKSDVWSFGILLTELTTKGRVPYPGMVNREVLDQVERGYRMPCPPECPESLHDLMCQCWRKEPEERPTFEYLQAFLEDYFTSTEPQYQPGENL
T4 sequence (Q05397 411-686): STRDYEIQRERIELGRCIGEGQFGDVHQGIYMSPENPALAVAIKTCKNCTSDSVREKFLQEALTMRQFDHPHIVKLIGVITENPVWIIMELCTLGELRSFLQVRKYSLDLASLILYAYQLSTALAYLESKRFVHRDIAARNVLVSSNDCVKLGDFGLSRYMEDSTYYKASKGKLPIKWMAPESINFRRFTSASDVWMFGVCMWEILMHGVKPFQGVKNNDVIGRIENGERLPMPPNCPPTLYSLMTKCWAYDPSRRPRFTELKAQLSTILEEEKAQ
T3 sequence (P53779 whole entry): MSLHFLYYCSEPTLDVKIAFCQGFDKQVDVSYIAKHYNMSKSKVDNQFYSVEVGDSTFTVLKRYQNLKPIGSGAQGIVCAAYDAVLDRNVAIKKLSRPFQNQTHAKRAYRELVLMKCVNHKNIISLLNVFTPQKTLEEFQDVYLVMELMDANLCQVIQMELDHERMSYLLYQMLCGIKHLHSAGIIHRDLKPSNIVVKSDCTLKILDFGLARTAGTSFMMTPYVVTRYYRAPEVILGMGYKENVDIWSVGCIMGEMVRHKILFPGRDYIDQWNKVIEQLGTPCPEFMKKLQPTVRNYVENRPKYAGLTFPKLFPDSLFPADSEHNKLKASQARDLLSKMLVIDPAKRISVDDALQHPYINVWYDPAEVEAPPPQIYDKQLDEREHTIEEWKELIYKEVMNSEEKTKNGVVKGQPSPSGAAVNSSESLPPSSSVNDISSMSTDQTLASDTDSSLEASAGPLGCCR

Row | SMILES | pIC50 (Abl) | pIC50 (Src) | pIC50 (Jnk3) | pIC50 (Fak) | pIC50 (Jnk1) | pIC50 (Stk6)
1 | CS(=O)(=O)c1cccc(-c2cnc3[nH]cc(C(=O)c4c(F)ccc(F)c4F)c3c2)c1 [Compound P-0102, [5-(3-Methanesulfonyl-phenyl)-1H-pyrrolo[2,3-b]pyridin-3-yl]-(2,3,6-trifluoro-phenyl)-methanone] |  | ≥ 5.00 | ≥ 5.00 | ≥ 5.00 | ≥ 5.00 | 
2 | COc1ccc(F)c(C(=O)c2c[nH]c3ncc(-c4cccnc4)cc23)c1 [Compound P-0090] | ≥ 5.00 | ≥ 5.00 | ≥ 5.00 |  | ≥ 5.00 | 
3 | O=C(c1ccccc1F)c1c[nH]c2ncc(-c3ccsc3)cc12 [Compound P-0134] | ≥ 5.00 | ≥ 5.00 | ≥ 5.00 |  | ≥ 5.00 | 
4 | Fc1cc(F)cc(-c2ccnc3[nH]cc(Sc4ccccn4)c23)c1 [Compound P-0106] |  |  |  |  |  | ≥ 5.00
5 | Nc1ccnc2[nH]cc(C(=O)c3ccccc3)c12 [Compound P-0029] |  |  |  |  |  | ≥ 5.00
6 | O=C(c1cccc(O)c1F)c1c[nH]c2ncc(-c3cccs3)cc12 [Compound P-0521, (2-fluoro-3-hydroxy-phenyl)-(5-thiophen-2-yl-1H-pyrrolo[2,3-b]pyridin-3-yl)-methanone] | ≥ 5.00 | ≥ 5.00 | ≥ 5.00 |  | ≥ 5.00 | 
7 | O=C(c1cccc(O)c1)c1c[nH]c2ncc(-c3cccnc3)cc12 [Compound P-0048] | ≥ 5.00 |  |  |  |  | 
8 | Cc1ccc(F)cc1C(=O)c1c[nH]c2ncc(-c3ccc(C(N)=O)cc3)cc12 [Compound P-0050] | ≥ 5.00 |  |  |  |  | 

The next lines start with the values.

Row | pIC50 (Abl) | pIC50 (Src) | pIC50 (Jnk3) | pIC50 (Fak) | pIC50 (Jnk1) | pIC50 (Stk6) | SMILES
9 | ≥ 5.00 | ≥ 5.00 |  |  |  |  | O=C(c1cc(O)ccc1F)c1c[nH]c2ncc(Br)cc12 [Compound P-0068, (5-Bromo-1H-pyrrolo[2,3-b]pyridin-3-yl)-(2-fluoro-5-hydroxy-phenyl)-methanone]
10 |  |  | ≥ 5.00 |  |  |  | Oc1ccc(F)c(Cc2c[nH]c3ncc(Br)cc23)c1F [Compound P-0122, 3-(5-Bromo-1H-pyrrolo[2,3-b]pyridin-3-ylmethyl)-2,4-difluoro-phenol]
11 | ≥ 5.00 | ≥ 5.00 |  |  |  |  | Cc1ccc(S(=O)(=O)NCc2c[nH]c3nccc(-c4cccc(C#N)c4)c23)cc1 [Compound P-0072]
12 |  | ≥ 5.00 |  | ≥ 5.00 |  |  | O=C(c1cccc(O)c1F)c1c[nH]c2ncc(Br)cc12 [Compound P-0067, (5-bromo-1H-pyrrolo[2,3-b]pyridin-3-yl)-(2-fluoro-3-hydroxy-phenyl)-methanone]
13 |  | ≥ 5.00 | ≥ 5.00 | ≥ 5.00 |  |  | CN(C)S(=O)(=O)Nc1ccc(F)c(Cc2c[nH]c3ncc(-c4cccnc4)cc23)c1F [Compound P-0166]
14 |  | ≥ 5.00 | ≥ 5.00 | ≥ 5.00 | ≥ 5.00 |  | O=C(c1cccc(O)c1F)c1c[nH]c2ncc(-c3ccccc3)cc12 [Compound P-0036, (2-fluoro-3-hydroxy-phenyl)-(5-phenyl-1H-pyrrolo[2,3-b]pyridin-3-yl)-methanone]
15 |  | ≥ 5.00 | ≥ 5.00 | ≥ 5.00 | ≥ 5.00 | ≥ 5.00 | CCCS(=O)(=O)Nc1ccc(F)c(C(=O)c2c[nH]c3ncc(-c4cccnc4)cc23)c1F [Compound P-0088, Propane-1-sulfonic acid [2,4-difluoro-3-(5-pyridin-3-yl-1H-pyrrolo[2,3-b]pyridine-3-carbonyl)-phenyl]-amide]
16 |  |  | ≥ 5.00 |  | ≥ 5.00 |  | CCCS(=O)(=O)Nc1ccc(F)c(C(=O)c2c[nH]c3ncc(-c4ccccc4)cc23)c1F [Compound P-0636, Propane-1-sulfonic acid [2,4-difluoro-3-(5-phenyl-1H-pyrrolo[2,3-b]pyridine-3-carbonyl)-phenyl]-amide]
17 |  | ≥ 5.00 |  |  |  |  | CS(=O)(=O)c1cccc(-c2ccnc3[nH]cc(C(=O)c4cc(F)ccc4F)c23)c1 [Compound P-0171]
18 | ≥ 5.00 | ≥ 5.00 |  |  |  |  | O=C(c1cc(O)ccc1F)c1c[nH]c2ncccc12 [Compound P-0005]
